Reference: US20220133747A1, “ESTROGEN RECEPTOR INHIBITORS AND USES THEROF” (The Regents of the University of California, priority 2018, published 2022)
Entries after “also recorded” stand apart in the source; their conditions may differ.

Assays:
[1] = test system: ER-dependent transcription; assay: ERE-luciferase T47D reporter, ER-dependent transcriptional activity; type: cell-based, human; settings: T47D ERE-luciferase, 10 nM with 2 nM 17β-estradiol
Description: FIGS. 20A-20C show biologic activity of selected SERD candidates. […] ER-positive MCF-7 cells were treated in phenol-red free RPMI 1640 without FBS and containing vehicle control (CON) or 100 nM concentrations of either fulvestrant (FX) or antiestrogens 105, 109, 121, 140, 151, 160 or SERD128 in vitro. After 4 hours, cells were harvested and processed for PAGE and Western immunoblots using ERα antibody (1D5, Thermofisher Scientific). RPL13A was used as a loading control. […] Cells were dosed with either E2 alone or with SERDs combined with E2 in phenol redfree medium with 0.1% dextran-coated charcoal-treated FBS in luminometer plates. Data are presented as relative light units (RLU) relative to that of E2 alone in three replicate assays (4 wells per replicate) f SEM. Treatment with E2 alone induced a 12-fold induction of ER-dependent luciferase activity quantified as RLU relative to vehicle control-treated samples.
A stable ER-positive T47D ERE luciferase reporter cell line, in which the ERE and the reporter luciferase gene are consistently expressed in the cell line were used in this study (Signosis). […] Lysate was mixed 1:1 with luciferase substrate (Promega), and luminescence was measured using a MLX microtiter plate luminometer (Dynex) and quantified as relative light units (RLU) according to established procedures. Total protein was quantified using BioRad Protein Assay (BioRad).

ZR75 cells = assay: Cell proliferation assay, ZR75; type: cell-based, human; settings: ZR75, 10 nM with 2 nM estradiol-17β, 48 hr
MCF-7/HER2 cells = assay: Cell proliferation assay, MCF-7 with HER2-overexpression; type: cell-based, human; settings: MCF-7/HER2, 10 nM with 2 nM estradiol-17β, 48 hr
MCF-7/TMR cells = assay: Cell proliferation assay, MCF-7 with tamoxifen resistance; type: cell-based, human; settings: 10 nM with 2 nM estradiol-17β, 48 hr
[2] = test system: 4T1 triple negative breast cancer cells; assay: 4T1 cell proliferation in vitro, Incucyte live-cell confluence; type: cell-based, mouse; settings: 10, 100, 1000 nM, presence or absence of estradiol-17β, 5 days
Description: FIGS. 23A-23C show estrogen effects on ERα negative tumor growth in vitro and in vivo. […] Female 6-wk-old BALB/c mice, either ovariectomized (ovx) or sham-operated (intact), were inoculated s.c. with 2×10^5 4T1 TNBC cells. Tumor growth was then assessed every 3 days, with tumor volume calculated as V=(l×w×w)/2. ****P≤0.0001. […] 4T1 cells were grown in the presence (+E2) or absence (−E2) of estradiol-17β and increasing concentrations of SERD128 at 10 nM (128-10), 100 nM (128-100) or 1000 nM (128-1000). Cell proliferation was assessed using the Incucyte S3 Live-Cell Analysis system with pictures obtained every 4-6 hours. […] Tumors were measured every 3 days, and tumor volume was calculated as V=(W(2)×L)/2). **P<0,01, ****P<0.0001 as compared to control group. n=11-12.
MCF-7 and other selected BC cells were seeded in 96-well plates at […] in complete medium. […] Cell number and viability were determined by either cell counts or by colorimetric assays using the CELLTITER 96 AQUEOUS (Promega) assay or the cell proliferation ELISA BrdU assay (Roche) as per manufacturer's instructions. […] In selected experiments using the INCUCYTE™ Live Cell System (Essen Bioscience) as per the manufacturer's instructions, the proliferation of 4T1 cells maintained in a tissue culture incubator was monitored by using the NucLight Rapid Red Reagent for cell labeling in 6-well plates. […]

[3] = Screen of SERD candidates in antitumor assays, comparison with fulvestrant; settings: a number of antitumor assays
Description: We designed, synthesized and screened more than 65 new SERD candidates, all of which have the general structure shown in 1′, namely 11β-aryloxy estradiols, with a basic amine positioned at the 4-position of the aryl ring (FIG. 16). The basic amine is connected to the aryl unit either directly or via a spacer that varies from 3-6 atoms. […] We note that this new class of steroid-like SERDs lack the prototypical side chain (as in fulvestrant) widely used to design other drugs with ERα antagonism, but these SERD candidates generate a full antagonist profile and induce significant ERα down-regulation, likely similar to significant ‘indirect’ receptor antagonism as reported in previous independent studies of 11β-substitutions in ERα [51, 52] and other structural changes as in an independent report.

C[C@]12C[C@H](Oc3ccc(N)c(C(F)(F)F)c3)[C@@H]3c4ccc(O)cc4CC[C@H]3[C@@H]1CC[C@@H]2O [SERD128, (8S,9S,11S,13S,14S,17S)-11-(4-Amino-3-(trifluoromethyl)phenoxy)-13-methyl-7,8,9,11,12,13,14,15,16,17-decahydro-6H-cyclopenta[a]phenanthrene-3,17-diol]
ER-dependent luciferase activity (RLU relative to E2 alone) [1]: comparable to that of the pure antiestrogen fulvestrant
cell proliferation (% of estradiol-treated controls) (ZR75 cells): significantly blocked proliferation; also recorded: significantly inhibited
cell proliferation (% of estradiol-treated controls) (MCF-7/HER2 cells): significantly blocked proliferation; also recorded: antiproliferative action
cell proliferation (% of estradiol-treated controls) (MCF-7/TMR cells): significantly blocked proliferation; also recorded: antiproliferative action
4T1 cell proliferation (phase object confluence) [2]: No significant differences were observed in cell proliferation; also recorded: did not elicit any significant effect on cell growth in vitro
activity relative to fulvestrant [3]: more potent than fulvestrant
